Data reported in PubChem BioAssay (NCI).
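Following 48 hours of exposure in 96-well plates, responses at five concentrations were used to interpolate endpoints linearly. The concentration for full growth arrest is given as TGI.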

Legend:
Experiment in all cases: inhibition of tumour cell growth, NCI panel, 48 h
OVCAR-5 ovarian = tested on: OVCAR-5 ovarian
NCI-H522 lung = tested on: NCI-H522 lung
MDA-MB-231 breast = tested on: MDA-MB-231 breast
HCT-116 colon = tested on: HCT-116 colon
M14 melanoma = tested on: M14 melanoma
RXF 393 renal = tested on: RXF 393 renal
MDA-N = tested on: MDA-N
A498 renal = tested on: A498 renal
IGROV1 ovarian = tested on: IGROV1 ovarian
SK-OV-3 ovarian = tested on: SK-OV-3 ovarian
MCF7 breast = tested on: MCF7 breast
HS 578T breast = tested on: HS 578T breast
K-562 leukemia = tested on: K-562 leukemia
SW-620 colon = tested on: SW-620 colon
SF-295 CNS = tested on: SF-295 CNS
UO-31 renal = tested on: UO-31 renal
COLO 205 colon = tested on: COLO 205 colon
MALME-3M melanoma = tested on: MALME-3M melanoma
TK-10 renal = tested on: TK-10 renal
HOP-62 NSCLC = tested on: HOP-62 NSCLC
SNB-19 CNS = tested on: SNB-19 CNS
OVCAR-8 ovarian = tested on: OVCAR-8 ovarian
UACC-257 melanoma = tested on: UACC-257 melanoma
NCI-H226 lung = tested on: NCI-H226 lung
SF-539 CNS = tested on: SF-539 CNS
BT-549 breast = tested on: BT-549 breast
SN12C renal = tested on: SN12C renal
NCI-H460 lung = tested on: NCI-H460 lung
SR leukemia = tested on: SR leukemia
HOP-92 NSCLC = tested on: HOP-92 NSCLC
HL-60(TB) leukemia = tested on: HL-60(TB) leukemia
SK-MEL-28 melanoma = tested on: SK-MEL-28 melanoma
HT29 colon = tested on: HT29 colon
HCT-15 colon = tested on: HCT-15 colon
UACC-62 melanoma = tested on: UACC-62 melanoma
CAKI-1 renal = tested on: CAKI-1 renal
LOX IMVI melanoma = tested on: LOX IMVI melanoma
ACHN renal = tested on: ACHN renal
CCRF-CEM leukemia = tested on: CCRF-CEM leukemia
T-47D breast = tested on: T-47D breast
MDA-MB-435 = tested on: MDA-MB-435
OVCAR-3 ovarian = tested on: OVCAR-3 ovarian
OVCAR-4 ovarian = tested on: OVCAR-4 ovarian
MOLT-4 leukemia = tested on: MOLT-4 leukemia
SK-MEL-2 melanoma = tested on: SK-MEL-2 melanoma
PC-3 prostate = tested on: PC-3 prostate
DU-145 prostate = tested on: DU-145 prostate
A549 NSCLC = tested on: A549 NSCLC
NCI/ADR-RES ovarian = tested on: NCI/ADR-RES ovarian
KM12 colon = tested on: KM12 colon
U251 CNS = tested on: U251 CNS
SNB-75 CNS = tested on: SNB-75 CNS
SK-MEL-5 melanoma = tested on: SK-MEL-5 melanoma
NCI-H23 lung = tested on: NCI-H23 lung
786-0 renal = tested on: 786-0 renal
SF-268 CNS = tested on: SF-268 CNS
HCC-2998 colon = tested on: HCC-2998 colon
RPMI-8226 leukemia = tested on: RPMI-8226 leukemia
EKVX NSCLC = tested on: EKVX NSCLC

O=C(CSc1nnc(-c2ccccn2)s1)N/N=C/c1ccc([N+](=O)[O-])cc1
TGI (OVCAR-5 ovarian): > 100 µM
TGI (NCI-H522 lung): > 100 µM
TGI (MDA-MB-231 breast): 49.1 µM
TGI (HCT-116 colon): > 100 µM
TGI (M14 melanoma): > 100 µM
TGI (RXF 393 renal): 37.3 µM
TGI (MDA-N): > 100 µM
TGI (A498 renal): 75.3 µM
TGI (IGROV1 ovarian): > 100 µM
TGI (SK-OV-3 ovarian): > 100 µM
TGI (MCF7 breast): > 100 µM
TGI (HS 578T breast): > 100 µM
TGI (K-562 leukemia): > 100 µM
TGI (SW-620 colon): > 100 µM
TGI (SF-295 CNS): > 100 µM
TGI (UO-31 renal): 4.19 µM
TGI (COLO 205 colon): > 100 µM
TGI (MALME-3M melanoma): > 100 µM
TGI (TK-10 renal): 79 µM
TGI (HOP-62 NSCLC): > 100 µM
TGI (SNB-19 CNS): 92.5 µM
TGI (OVCAR-8 ovarian): > 100 µM
TGI (UACC-257 melanoma): > 100 µM
TGI (NCI-H226 lung): > 100 µM
TGI (SF-539 CNS): > 100 µM
TGI (BT-549 breast): > 100 µM
TGI (SN12C renal): > 100 µM
TGI (NCI-H460 lung): > 100 µM
TGI (SR leukemia): > 100 µM
TGI (HOP-92 NSCLC): 42.3 µM
TGI (HL-60(TB) leukemia): > 100 µM
TGI (SK-MEL-28 melanoma): > 100 µM
TGI (HT29 colon): > 100 µM
TGI (HCT-15 colon): > 100 µM
TGI (UACC-62 melanoma): > 100 µM
TGI (CAKI-1 renal): > 100 µM
TGI (LOX IMVI melanoma): > 100 µM
TGI (ACHN renal): > 100 µM
TGI (CCRF-CEM leukemia): > 100 µM
TGI (T-47D breast): > 100 µM
TGI (MDA-MB-435): > 100 µM
TGI (OVCAR-3 ovarian): > 100 µM
TGI (OVCAR-4 ovarian): > 100 µM
TGI (MOLT-4 leukemia): > 100 µM
TGI (SK-MEL-2 melanoma): > 100 µM
TGI (PC-3 prostate): > 100 µM
TGI (DU-145 prostate): 49.5 µM
TGI (A549 NSCLC): > 100 µM
TGI (NCI/ADR-RES ovarian): > 100 µM
TGI (KM12 colon): > 100 µM
TGI (U251 CNS): 41.2 µM
TGI (SNB-75 CNS): 10.3 µM
TGI (SK-MEL-5 melanoma): > 100 µM
TGI (NCI-H23 lung): > 100 µM
TGI (786-0 renal): > 100 µM
TGI (SF-268 CNS): 71.9 µM

COc1cc(/C=C2\C[C@H]3[C@@H]4CC=C5C[C@@H](OC(C)=O)CC[C@]5(C)[C@H]4CC[C@]3(C)\C2=N\O)cc(OC)c1OC
TGI (OVCAR-5 ovarian): > 100 µM
TGI (NCI-H522 lung): > 49.8 µM
TGI (MDA-MB-231 breast): > 100 µM
TGI (HCC-2998 colon): > 100 µM
TGI (HCT-116 colon): > 100 µM
TGI (M14 melanoma): > 100 µM
TGI (RXF 393 renal): 4.28 µM
TGI (MDA-N): > 100 µM
TGI (IGROV1 ovarian): > 100 µM
TGI (RPMI-8226 leukemia): 3.08 µM
TGI (SK-OV-3 ovarian): > 100 µM
TGI (MCF7 breast): > 100 µM
TGI (HS 578T breast): > 100 µM
TGI (K-562 leukemia): > 100 µM
TGI (SW-620 colon): > 100 µM
TGI (SF-295 CNS): 13 µM
TGI (UO-31 renal): 95 µM
TGI (COLO 205 colon): 17.8 µM
TGI (MALME-3M melanoma): > 60.9 µM
TGI (TK-10 renal): > 100 µM
TGI (HOP-62 NSCLC): > 100 µM
TGI (SNB-19 CNS): > 100 µM
TGI (OVCAR-8 ovarian): > 100 µM
TGI (UACC-257 melanoma): > 100 µM
TGI (NCI-H226 lung): > 100 µM
TGI (EKVX NSCLC): > 81.9 µM
TGI (SF-539 CNS): > 92.4 µM
TGI (BT-549 breast): > 90.8 µM
TGI (SN12C renal): > 100 µM
TGI (NCI-H460 lung): > 100 µM
TGI (SR leukemia): 14.8 µM
TGI (HOP-92 NSCLC): 9.43 µM
TGI (HL-60(TB) leukemia): 15.8 µM
TGI (SK-MEL-28 melanoma): > 72.1 µM
TGI (HT29 colon): > 68.4 µM
TGI (HCT-15 colon): > 100 µM
TGI (UACC-62 melanoma): 45.6 µM
TGI (CAKI-1 renal): > 60.2 µM
TGI (LOX IMVI melanoma): 38.4 µM
TGI (ACHN renal): > 32.8 µM
TGI (CCRF-CEM leukemia): > 30.6 µM
TGI (T-47D breast): 5.22 µM
TGI (MDA-MB-435): > 91.3 µM
TGI (OVCAR-3 ovarian): > 100 µM
TGI (OVCAR-4 ovarian): > 83.7 µM
TGI (MOLT-4 leukemia): > 25.5 µM
TGI (SK-MEL-2 melanoma): 76.6 µM
TGI (PC-3 prostate): 18.6 µM
TGI (DU-145 prostate): > 100 µM
TGI (A549 NSCLC): > 100 µM
TGI (NCI/ADR-RES ovarian): > 88.9 µM
TGI (KM12 colon): > 100 µM
TGI (U251 CNS): > 86.3 µM
TGI (SNB-75 CNS): > 43.3 µM
TGI (SK-MEL-5 melanoma): 14.7 µM
TGI (NCI-H23 lung): > 100 µM
TGI (786-0 renal): > 43.3 µM
TGI (SF-268 CNS): > 100 µM
